Data on six compounds can be found in BindingDB's records for patent US20240116948 (Chiesi Farmaceutici, 2024).

The target of this assay is T1, TGF-beta receptor type-1 (Homo sapiens, UniProt P36897).
T1 sequence (P36897 whole entry): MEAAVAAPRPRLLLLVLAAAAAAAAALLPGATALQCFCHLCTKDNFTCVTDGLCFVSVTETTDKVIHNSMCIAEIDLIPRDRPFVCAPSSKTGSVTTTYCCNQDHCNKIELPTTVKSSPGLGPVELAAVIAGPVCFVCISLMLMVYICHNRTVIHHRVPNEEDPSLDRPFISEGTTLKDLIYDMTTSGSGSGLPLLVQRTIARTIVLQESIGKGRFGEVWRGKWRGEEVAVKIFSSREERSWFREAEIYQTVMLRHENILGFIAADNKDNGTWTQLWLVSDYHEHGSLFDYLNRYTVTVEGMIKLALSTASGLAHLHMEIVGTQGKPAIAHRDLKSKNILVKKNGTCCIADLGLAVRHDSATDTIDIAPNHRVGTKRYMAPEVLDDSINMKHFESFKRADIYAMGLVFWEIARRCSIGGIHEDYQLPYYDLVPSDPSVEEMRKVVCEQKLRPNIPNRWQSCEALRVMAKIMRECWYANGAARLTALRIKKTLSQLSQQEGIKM
In words: In Vitro Assay. As for the experimental part: The enzymatic activity of compounds of the present invention was monitored measuring the formation of ADP using the ADP-GLO Kinases assay. Following the incubation of the purified enzyme, a substrate and ATP, the produced ADP was converted into ATP, which in turn was converted into light by Ultra-Glo Luciferase. The luminescent signal positively correlated with ADP amount and kinase activity. Briefly, the kinase reaction was performed by incubating 2.6 nM of the purified, commercially available human ALK5 (recombinant TGF 31 N-term GST-tagged, 80-end), a final concentration of TGFβ1 peptide 94.5 μM (Promega, T36-58) and ultra-pure ATP (Promega V915B). The ATP concentration was set at the Km value (concentration of substrate which permits the enzyme to achieve half maximal velocity (Vmax)) of ALK5 (5 μM). All reactions/incubations were performed at 25° C. Compound and ALK5 kinase were mixed and incubated for 15 mins. Reactions were initiated by addition of ATP at a final concentration in the assay of […]. After an incubation of 150 min, the reaction was stopped, and ADP production detected with ADP-Glo kit according to manufacturer's indications. The assay was performed in 384-well format and was validated using a selection of reference compounds that was tested in 11 point concentration-response curve.

Structures are written as SMILES.

For `CN(C)CCC(=O)Nc1cncc(-c2cc(-c3cc(Cl)ccc3F)nc3c2OCCN3)c1` [US20240116948, Example 8], the IC50 is < 1 nM.
For the compound `O=C(CCN1CCCC1)Nc1cncc(-c2cc(-c3cc(Cl)ccc3F)nc3c2OCCN3)c1` [US20240116948, Example 12], the IC50 was < 1 nM.
With `CN(C)CCCOc1cncc(-c2cc(-c3cc(Cl)ccc3F)nc3c2OCCN3)c1` [US20240116948, Example 27] the figure was < 1 nM.
As for `CNCCCC(=O)Nc1cncc(-c2cc(-c3cc(Cl)ccc3F)nc3c2OCCN3)c1` [US20240116948, Example 31], the figure is < 1 nM.
As for `CN1CCC(Oc2cncc(-c3cc(-c4cc(Cl)ccc4F)nc4c3OCCN4)c2)CC1` [US20240116948, Example 41], the figure is < 1 nM; as for `CN(CCO)CCC(=O)Nc1cncc(-c2cc(-c3cc(Cl)ccc3F)nc3c2OCCN3)c1` [US20240116948, Example 44], < 1 nM.

By IC50 is commonly meant the midpoint of a concentration-inhibition curve. Higher therefore signals weaker potency.
